The text below walks through data of PubChem BioAssay AID2060502 (Molecular Pharmacology Branch, DTP, NCI, 2025).

In this experiment the test system is 885724-159-R-J1-PDC complex spheroid viability. Description: Anticancer human tumor 885724-159-R-J1-PDC patient-derived pancreatic adenocarcinoma cell line growth inhibition [GQUAD]. Particulars: for viability, T/C: stronger effect = lower value. The text has this: DNA G-quadruplex Stabilizer Agents in Combinations in Complex Spheroids
A high-throughput screen of multi-cell type tumor spheroids was designed to identify active combinations of DNA G-quadruplex stabilizer agents and targeted small molecules. Complex spheroids include a stromal component modeled by human endothelial cells (HUVEC) and fibroblasts modeled by human mesenchymal stem cells (MSCs). The concentration ranges selected for each drug and investigational agent were based upon clinically achievable concentrations if the clinical Cmax of the agent was known.
Compounds. The drugs and investigational agents: pidnarulex (CX-5461; NSC782164), APTO-253 (NSC789042), BRACO-19 (NSC847499), peposertib (NSC802822), ceralasertib (NSC780249), elimusertib (NSC800525), camonsertib (NSC841442), AZD-1390 (NSC803789), olaparib (NSC753686), talazoparib (NSC767125), ART-558 (NSC835418), sotorasib (NSC818433), MRTX-1133 (NSC836407), SN-38 (NSC673596), topotecan (NSC609699), etoposide (NSC141540), doxorubicin (NSC123127), gemcitabine (NSC613327), 5-fluorouracil (NSC19893), paclitaxel (NSC125973), vemurafenib (NSC761431), panobinostat (NSC761190), R-306465 (JNJ-16241199; NSC773264), adavosertib (NSC754352), TP-3654 (NSC805149), carboplatin (NSC241240), KSQ-4279 (NSC840948), and staurosporine (NSC755774) were obtained from the National Cancer Institute (NCI) Developmental Therapeutics Program Chemical Repository (34). The FDA-approved anticancer drug set is available from the NCI Developmental Therapeutics Program. […] The stock solutions were prepared in dimethyl sulfoxide (DMSO, Sigma-Aldrich, St. Louis, MO, cat. D2650) at 800-fold the tested concentration and stored at -70 degrees C prior to their use. All drugs and investigational agents were tested over a range starting from a high concentration at or near the clinical Cmax and decreasing in half-log increments. If the clinical Cmax for an agent had not been determined, the highest concentration tested was 10 microM.
2.3 Cell Culture. All cells were maintained in an incubator at 37 degrees C and 5% CO2 with 95% humidity. The PDC lines were cultured according to standard operating procedures established by the NCI PDMR. All PDCs were thawed and cultured in Matrigel-coated flasks prepared with a working solution of 1X Ham's F-12 nutrient mix, without supplementation (Invitrogen, cat. 11765054), 100 U/mL penicillin-streptomycin (Invitrogen, cat. 15140122), and 2.5% Matrigel (Corning Inc., cat. 354248) for the first three passages. The 857933-349-R-J2-PDC line was cultured in 6C/Colon 1B media, which includes advanced DMEM/F-12 (Thermo Fisher Scientific, cat. 12634028), 10 mM HEPES (Thermo Fisher Scientific, cat. 15630080), 1X GlutaMAX supplement (Thermo Fisher Scientific, cat. 35050061), 0.1 mg/mL primocin (InvivoGen, cat. ant-pm-2), 10% defined fetal bovine serum, heat inactivated (HyClone Laboratories Inc., cat. SH30070.03HI), 50% L-WRN conditioned media (ATCC, cat. CRL-3276), 1.25 mM N-Acetyl-L-cysteine (Sigma-Aldrich, cat. A9165), 10 mM nicotinamide (Sigma-Aldrich, cat. N0636), 1X B-27 supplement (Thermo Fisher Scientific, cat. 17504044), 1X N-2 supplement (Thermo Fisher Scientific, cat. 17502048), 10 microM Y-27632 dihydrochloride (Tocris Bioscience, cat. 1254), and 50 ng/mL human EGF recombinant protein (Thermo Fisher Scientific, cat. PHG0311). The 485176-168-R4-J1-PDC line was cultured in Panc media, which includes all 6C/Colon 1B media components plus 100 ng/mL human FGF-10 (Thermo Fisher Scientific, cat. 100-26), 500 nM SB-431542 (Selleckchem, cat. S1067), and gastrin (Tocris, cat. 3006).
[…]

[1] abbreviates: curve of first compound, second compound 0.0316 µM.
Where [2] appears, read: curve of first compound, second compound 0.1 µM.
Where [3] appears, read: curve of first compound, second compound 0.316 µM.
[4] abbreviates: curve of first compound, second compound 1 µM.
The mark [5] stands for this setting: curve of first compound, second compound 3.16 µM.
Setting [6] is: curve of first compound, second compound 10 µM.
[7] abbreviates: second compound 0.0316 µM, first compound 0.0316 µM.
Setting [8] is: second compound 0.0316 µM, first compound 0.1 µM.
The mark [9] stands for this setting: second compound 0.0316 µM, first compound 0.316 µM.
[10] abbreviates: second compound 0.0316 µM, first compound 1 µM.
Where [11] appears, read: second compound 0.0316 µM, first compound 3.16 µM.
Setting [12] is: second compound 0.0316 µM, first compound 10 µM.
The mark [13] stands for this setting: second compound 0.1 µM, first compound 0.0316 µM.
Where [14] appears, read: second compound 0.1 µM, first compound 0.1 µM.
Setting [15] is: second compound 0.1 µM, first compound 0.316 µM.
Where [16] appears, read: second compound 0.1 µM, first compound 1 µM.
[17] abbreviates: second compound 0.1 µM, first compound 3.16 µM.
Where [18] appears, read: second compound 0.1 µM, first compound 10 µM.
The mark [19] stands for this setting: second compound 0.316 µM, first compound 0.0316 µM.
The mark [20] stands for this setting: second compound 0.316 µM, first compound 0.1 µM.
Setting [21] is: second compound 0.316 µM, first compound 0.316 µM.
Setting [22] is: second compound 0.316 µM, first compound 1 µM.
The mark [23] stands for this setting: second compound 0.316 µM, first compound 3.16 µM.
[24] abbreviates: second compound 0.316 µM, first compound 10 µM.
[25] abbreviates: second compound 1 µM, first compound 0.0316 µM.
[26] abbreviates: second compound 1 µM, first compound 0.1 µM.
Where [27] appears, read: second compound 1 µM, first compound 0.316 µM.
Setting [28] is: second compound 1 µM, first compound 1 µM.
Setting [29] is: second compound 1 µM, first compound 3.16 µM.
[30] abbreviates: second compound 1 µM, first compound 10 µM.
Setting [31] is: second compound 3.16 µM, first compound 0.0316 µM.
Setting [32] is: second compound 3.16 µM, first compound 0.1 µM.
The mark [33] stands for this setting: second compound 3.16 µM, first compound 0.316 µM.
Setting [34] is: second compound 3.16 µM, first compound 1 µM.
Where [35] appears, read: second compound 3.16 µM, first compound 3.16 µM.
[36] abbreviates: second compound 3.16 µM, first compound 10 µM.
The mark [37] stands for this setting: second compound 10 µM, first compound 0.0316 µM.
Setting [38] is: second compound 10 µM, first compound 0.1 µM.
[39] abbreviates: second compound 10 µM, first compound 0.316 µM.
[40] abbreviates: second compound 10 µM, first compound 1 µM.
The mark [41] stands for this setting: second compound 10 µM, first compound 3.16 µM.
Setting [42] is: second compound 10 µM, first compound 10 µM.
Where [43] appears, read: compound alone, run of 02/20/2024.

Each structure is given as a SMILES string. Values joined by “and” are separate entries in the source; they are usually repeats but may differ in a detail not shown here. Equal values may be shown once.
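Also: spheroids exposed to agents for seven days before readout.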
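For viability, T/C in this document: percent of vehicle control viability where 100% = DMSO wells.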

The IC50 is the concentration at which inhibition is half-maximal. A word on the viability, T/C: it is the ratio of treated to control. Consider `CC(C)(O)C1CCC(Nc2ccc3ncc(-c4cccc(C(F)(F)F)c4)n3n2)CC1` (centres undefined) + Cc1[nH]c2ccc(F)cc2c1-c1nc2c3cccnc3c3ncccc3c2[nH]1, for which the half-maximal inhibitory concentration (IC50) is, setting by setting: under setting [1], 2500 nM; under setting [2], 2760 nM; under setting [3], 1520 nM; under setting [4], 538 nM; under setting [5], under 31.6 nM; under setting [6], 1030 nM. The viability, T/C reads like this: under setting [7], 96.3%; under setting [8], 93.1%; under setting [9], 83.1%; under setting [10], 84.6%; under setting [11], 37.3%; under setting [12], 44.7%. Besides, the viability, T/C reads like this: under setting [13], 97.1%; under setting [14], 91.6%; under setting [15], 77.4%; under setting [16], 72.1%; under setting [17], 41.4%; under setting [18], 41.2%. The viability, T/C reads like this: under setting [19], 90.5%; under setting [20], 78.3%; under setting [21], 82.8%; under setting [22], 55.5%; under setting [23], 40.7%; under setting [24], 38.3%. Further, the viability, T/C reads like this: under setting [25], 77%; under setting [26], 58.2%; under setting [27], 57.2%; under setting [28], 47.6%; under setting [29], 33.8%; under setting [30], 29.6%. For the same compound, the viability, T/C is 19.3% under setting [31]; 8.78% under setting [32]; 9.83% under setting [33]; 9.8% under setting [34]; 7.07% under setting [35]; 7.05% under setting [36]. Further, the viability, T/C was 67.9% under setting [37]; 59% under setting [38]; 57.7% under setting [39]; 50.5% under setting [40]; 28.2% under setting [41]; 35.4% under setting [42].
In the case of `Cc1cnc(CNC(=O)c2c(=O)c3ccc(N4CCCN(C)CC4)nc3n3c2sc2ccccc23)cn1`, the viability, T/C is, setting by setting: (compound 0.316 µM) 98.5% [middle of 12 runs]; (compound 1 µM) 87.6% [middle of 11 runs]; (compound 3.16 µM) 80.1% [middle of 12 runs]; (compound 10 µM) 77.7% [middle of 12 runs]. Besides, the concentration for half-maximal inhibition (IC50) under setting [43] is over 10000 nM.
In the case of `Cc1[nH]c2ccc(F)cc2c1-c1nc2c3cccnc3c3ncccc3c2[nH]1`, the viability, T/C by setting is: (compound 0.0316 µM) 100% [middle of 12 runs]; (compound 0.316 µM) 92.7% [middle of 12 runs]; (compound 1 µM) 76.8% [middle of 12 runs]; (compound 10 µM) 77.7% [middle of 12 runs]. The IC50 was over 10000 nM under setting [43] and over 10000 nM (compound alone, run of 02/26/2024).
Turning to `CCc1c2c(nc3ccc(O)cc13)-c1cc3c(c(=O)n1C2)COC(=O)[C@]3(O)CC`, the viability, T/C is, setting by setting: (compound 0.000999 µM) 85.3% and 91.4% and 93.3%; (compound 0.00316 µM) 87.5% and 81.8% and 85.2%; (compound 0.00999 µM) 63.2% and 62.8% and 77.4%; (compound 0.0316 µM) 66.7% and 67.3% and 62.1%; (compound 0.0999 µM) 60.3% and 45.8% and 59%; (compound 0.316 µM) 17.2% and 8.7% and 16.4%. Further, the IC50 (curve of compound) is 110 nM and 64.3 nM and 101 nM.
With `COc1cccc2c1C(=O)c1c(O)c3c(c(O)c1C2=O)CC(O)(C(=O)CO)CC3OC1CC(N)C(O)C(C)O1` (centres undefined) + Cc1[nH]c2ccc(F)cc2c1-c1nc2c3cccnc3c3ncccc3c2[nH]1, the IC50 under setting [1] was determined as 1970 nM; the IC50 under setting [2] amounted to 2290 nM; the concentration for half-maximal inhibition (IC50) under setting [3] is 2490 nM; the IC50 under setting [4] worked out at 2530 nM; the half-inhibitory concentration (IC50) under setting [5] turned out to be 37.4 nM; the concentration for half-maximal inhibition (IC50) under setting [6] amounted to 2000 nM. Further, the viability, T/C was 104% under setting [7]; 98.8% under setting [8]; 92% under setting [9]; 71.8% under setting [10]; 34.8% under setting [11]; 5.27% under setting [12]. For the same compound, the viability, T/C by setting is: under setting [13], 119%; under setting [14], 99.5%; under setting [15], 89.2%; under setting [16], 74.7%; under setting [17], 41%; under setting [18], 2.4%. For the same compound, the viability, T/C was 91% under setting [19]; 96.2% under setting [20]; 86.6% under setting [21]; 64% under setting [22]; 47.8% under setting [23]; 2.12% under setting [24]. Further, the viability, T/C is 78.2% under setting [25]; 69.3% under setting [26]; 71.5% under setting [27]; 61.2% under setting [28]; 49% under setting [29]; 1.09% under setting [30]. Besides, the viability, T/C is, setting by setting: under setting [31], 52.8%; under setting [32], 43.5%; under setting [33], 29.2%; under setting [34], 26.4%; under setting [35], 22.5%; under setting [36], 0.94%. Further, the viability, T/C is 73.3% under setting [37]; 64.9% under setting [38]; 58.6% under setting [39]; 69.5% under setting [40]; 39% under setting [41]; 1.06% under setting [42].
As for `CC1COCCN1c1cc(C2(S(C)(=N)=O)CC2)nc(-c2ccnc3[nH]ccc23)n1` (centres undefined), the viability, T/C (compound 0.0316 µM) is 105% (2×) and 97.6%; the viability, T/C (compound 0.1 µM) was 105% and 96.7% and 98.2%; the viability, T/C (compound 0.316 µM) was 105% and 94.7% and 99.6%; the viability, T/C (compound 1 µM) is 97.2% and 88.8% and 98.5%; the viability, T/C (compound 3.16 µM) was 84.7% and 82.4% and 109%; the viability, T/C (compound 10 µM) is 65.2% and 74.3% and 86.2%. The concentration for half-maximal inhibition (IC50) (curve of compound) is over 10000 nM.
